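Assay format: 96-well plates, 48-hour exposure. GI50 marks 50% less growth.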 Active and inactive are the calls of the source. Cut-off read from the data, not from the text of the source: active = GI50 up to about 1.1 µM and inactive = higher.
Tests used:
Test in all cases: NCI-60 cell line screen, 48 h
UACC-257 = system: UACC-257
MDA-MB-231 = system: MDA-MB-231
OVCAR-4 = system: OVCAR-4
DU-145 = system: DU-145
CAKI-1 = system: CAKI-1
EKVX = system: EKVX
SR = system: SR
BT-549 = system: BT-549
TK-10 = system: TK-10
NCI/ADR-RES = system: NCI/ADR-RES
NCI-H460 = system: NCI-H460
M14 = system: M14
SN12C = system: SN12C
SNB-75 = system: SNB-75
UACC-62 = system: UACC-62
SF-268 = system: SF-268
MDA-N = system: MDA-N
NCI-H23 = system: NCI-H23
Hs-578T = system: Hs-578T
SK-OV-3 = system: SK-OV-3
A498 = system: A498
SK-MEL-28 = system: SK-MEL-28
OVCAR-8 = system: OVCAR-8
HCT-15 = system: HCT-15
IGROV-1 = system: IGROV-1
HL-60 = system: HL-60
HT-29 = system: HT-29
Malme-3M = system: Malme-3M
T47D = system: T47D
SK-MEL-5 = system: SK-MEL-5
LOX IMVI = system: LOX IMVI
HOP-92 = system: HOP-92
MOLT-4 = system: MOLT-4
COLO 205 = system: COLO 205
CCRF-CEM = system: CCRF-CEM
U-251 = system: U-251
MCF7 = system: MCF7
SW-620 = system: SW-620
K562 = system: K562
RPMI-8226 = system: RPMI-8226
A549 = system: A549
SF-539 = system: SF-539
KM12 = system: KM12
HOP-62 = system: HOP-62
786-0 = system: 786-0
HCC 2998 = system: HCC 2998
UO-31 = system: UO-31
SNB-19 = system: SNB-19
NCI-H522 = system: NCI-H522
OVCAR-5 = system: OVCAR-5
OVCAR-3 = system: OVCAR-3
RXF 393 = system: RXF 393
HCT-116 = system: HCT-116
SF-295 = system: SF-295
NCI-H226 = system: NCI-H226
MDA-MB-435 = system: MDA-MB-435
ACHN = system: ACHN

For `Cc1ccc(Nc2nc(NNC(=O)Cc3ccccc3)nc(NNC(=O)c3ccncc3)n2)cc1`, the GI50 (UACC-257) was > 10 µM (inactive), the GI50 (MDA-MB-231) was > 10 µM (inactive) and the GI50 (OVCAR-4) was > 10 µM (inactive). The GI50 (DU-145) was > 10 µM (inactive), the GI50 (CAKI-1) was > 10 µM (inactive) and the GI50 (EKVX) was > 10 µM (inactive). For the same molecule, the GI50 (SR) was > 10 µM (inactive), the GI50 (BT-549) was > 10 µM (inactive) and the GI50 (TK-10) was > 10 µM (inactive). The GI50 (NCI/ADR-RES) was > 10 µM (inactive), the GI50 (NCI-H460) was > 10 µM (inactive) and the GI50 (M14) was > 10 µM (inactive). For the same molecule, the GI50 (SN12C) was > 10 µM (inactive), the GI50 (SNB-75) was > 10 µM (inactive) and the GI50 (UACC-62) was 9.82 µM (inactive). The GI50 (SF-268) was > 10 µM (inactive), the GI50 (MDA-N) was > 10 µM (inactive) and the GI50 (NCI-H23) was > 10 µM (inactive). For the same molecule, the GI50 (Hs-578T) was > 10 µM (inactive), the GI50 (SK-OV-3) was > 10 µM (inactive) and the GI50 (A498) was > 10 µM (inactive). The GI50 (SK-MEL-28) was > 10 µM (inactive), the GI50 (OVCAR-8) was > 10 µM (inactive) and the GI50 (HCT-15) was > 10 µM. For the same molecule, the GI50 (IGROV-1) was > 10 µM (inactive), the GI50 (HL-60) was > 10 µM (inactive) and the GI50 (HT-29) was > 10 µM (inactive). For the same molecule, the GI50 (Malme-3M) was > 10 µM (inactive), the GI50 (T47D) was > 10 µM (inactive) and the GI50 (SK-MEL-5) was > 10 µM (inactive). The GI50 (LOX IMVI) was > 10 µM (inactive), the GI50 (HOP-92) was > 10 µM (inactive) and the GI50 (MOLT-4) was > 10 µM (inactive). The GI50 (COLO 205) was > 10 µM (inactive), the GI50 (CCRF-CEM) was > 10 µM (inactive) and the GI50 (U-251) was > 10 µM (inactive). For the same molecule, the GI50 (MCF7) was > 10 µM (inactive), the GI50 (SW-620) was > 10 µM (inactive) and the GI50 (K562) was > 10 µM (inactive). The GI50 (RPMI-8226) was > 10 µM (inactive), the GI50 (A549) was > 10 µM (inactive) and the GI50 (SF-539) was > 10 µM (inactive). The GI50 (KM12) was > 10 µM (inactive), the GI50 (HOP-62) was > 10 µM (inactive) and the GI50 (786-0) was > 10 µM (inactive). The GI50 (HCC 2998) was > 10 µM (inactive) and the GI50 (UO-31) was 8.49 µM (inactive).

With `O=C1N/C(=N/N=C/C(O)C(O)C(O)CO)N/C1=C\c1ccco1` (configuration not stated) the GI50 (UACC-257) was > 100 µM (inactive), the GI50 (SNB-19) was 0.0354 µM (active) and the GI50 (MDA-MB-231) was > 100 µM (inactive). For the same molecule, the GI50 (OVCAR-4) was > 100 µM (inactive), the GI50 (DU-145) was > 100 µM (inactive) and the GI50 (CAKI-1) was > 100 µM (inactive). The GI50 (EKVX) was > 100 µM (inactive), the GI50 (BT-549) was > 100 µM (inactive) and the GI50 (NCI-H522) was > 100 µM (inactive). For the same molecule, the GI50 (TK-10) was > 100 µM (inactive), the GI50 (NCI/ADR-RES) was > 100 µM (inactive) and the GI50 (NCI-H460) was > 100 µM (inactive). For the same molecule, the GI50 (M14) was > 100 µM (inactive), the GI50 (SN12C) was > 100 µM (inactive) and the GI50 (OVCAR-5) was > 100 µM (inactive). For the same molecule, the GI50 (OVCAR-3) was > 100 µM (inactive), the GI50 (SNB-75) was > 100 µM (inactive) and the GI50 (UACC-62) was > 100 µM (inactive). The GI50 (SF-268) was > 100 µM (inactive), the GI50 (MDA-N) was > 100 µM (inactive) and the GI50 (NCI-H23) was > 100 µM (inactive). The GI50 (Hs-578T) was > 100 µM (inactive), the GI50 (RXF 393) was > 100 µM (inactive) and the GI50 (HCT-116) was > 100 µM (inactive). The GI50 (SK-OV-3) was > 100 µM (inactive), the GI50 (A498) was > 100 µM (inactive) and the GI50 (SK-MEL-28) was > 100 µM (inactive). For the same molecule, the GI50 (OVCAR-8) was > 100 µM (inactive), the GI50 (SF-295) was > 100 µM (inactive) and the GI50 (HCT-15) was > 100 µM. The GI50 (IGROV-1) was > 100 µM (inactive), the GI50 (HL-60) was > 100 µM (inactive) and the GI50 (HT-29) was > 100 µM (inactive). The GI50 (Malme-3M) was > 100 µM (inactive), the GI50 (T47D) was > 100 µM (inactive) and the GI50 (SK-MEL-5) was > 100 µM (inactive). The GI50 (LOX IMVI) was > 100 µM (inactive), the GI50 (NCI-H226) was > 100 µM (inactive) and the GI50 (HOP-92) was > 100 µM (inactive). The GI50 (MOLT-4) was > 100 µM (inactive), the GI50 (COLO 205) was > 100 µM (inactive) and the GI50 (CCRF-CEM) was 93.1 µM (inactive). The GI50 (U-251) was > 100 µM (inactive), the GI50 (MCF7) was > 100 µM (inactive) and the GI50 (SW-620) was > 100 µM (inactive). For the same molecule, the GI50 (K562) was > 100 µM (inactive), the GI50 (MDA-MB-435) was > 100 µM (inactive) and the GI50 (ACHN) was > 100 µM (inactive). The GI50 (RPMI-8226) was > 100 µM (inactive), the GI50 (A549) was 64.6 µM (inactive) and the GI50 (SF-539) was > 100 µM (inactive). The GI50 (KM12) was > 100 µM (inactive), the GI50 (HOP-62) was > 100 µM (inactive) and the GI50 (786-0) was > 100 µM (inactive). For the same molecule, the GI50 (HCC 2998) was > 100 µM (inactive).
